Activity calls are given as the source filed them.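 The calls were made as follows: active = mean IC50 below 20 µM in each of the two panels, so potent in both; inactive = the rest.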
Target: Neuropilin-1 (Homo sapiens) (UniProt O14786)
Experiment: blockers of CendR peptide binding to NRP-1 – biochemical, FP and AlphaScreen panel, dose response (AID 651650)
Details: NRP-1 b1b2 / RPARPAR peptide binding, FP or AlphaScreen
[1] = AlphaScreen, run 1, individual panel run IC50
[2] = FP, run 1, individual panel run IC50
[3] = FP, run 2, individual panel run IC50

Chain of Neuropilin-1 (Homo sapiens) (O14786 whole entry, looked up): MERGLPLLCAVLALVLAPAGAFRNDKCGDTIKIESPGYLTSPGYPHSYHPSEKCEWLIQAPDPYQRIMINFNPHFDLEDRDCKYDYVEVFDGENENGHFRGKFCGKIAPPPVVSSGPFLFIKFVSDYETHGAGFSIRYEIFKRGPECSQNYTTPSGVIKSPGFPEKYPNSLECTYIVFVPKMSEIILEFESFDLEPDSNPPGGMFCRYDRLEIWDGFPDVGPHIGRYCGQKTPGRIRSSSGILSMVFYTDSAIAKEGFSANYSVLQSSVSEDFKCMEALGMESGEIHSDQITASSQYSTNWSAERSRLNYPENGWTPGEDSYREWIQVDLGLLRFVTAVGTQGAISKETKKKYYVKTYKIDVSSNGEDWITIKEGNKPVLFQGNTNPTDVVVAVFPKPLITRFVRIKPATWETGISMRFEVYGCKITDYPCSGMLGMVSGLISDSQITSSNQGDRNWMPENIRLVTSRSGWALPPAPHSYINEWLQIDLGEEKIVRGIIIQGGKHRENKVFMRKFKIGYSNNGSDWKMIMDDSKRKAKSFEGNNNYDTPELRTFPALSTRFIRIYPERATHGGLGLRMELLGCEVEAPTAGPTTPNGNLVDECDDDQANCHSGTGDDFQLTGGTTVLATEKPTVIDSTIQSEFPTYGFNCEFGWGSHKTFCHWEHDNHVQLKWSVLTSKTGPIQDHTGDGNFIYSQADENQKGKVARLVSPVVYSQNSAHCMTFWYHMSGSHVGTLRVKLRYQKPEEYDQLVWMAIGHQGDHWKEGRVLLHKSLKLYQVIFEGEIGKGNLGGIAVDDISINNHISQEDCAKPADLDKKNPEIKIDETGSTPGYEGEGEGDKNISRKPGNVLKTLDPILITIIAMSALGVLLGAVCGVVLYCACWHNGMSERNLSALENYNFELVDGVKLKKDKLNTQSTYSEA

SMILES | IC50 (AlphaScreen, mean of runs) | IC50 [1] [µM] | IC50 (FP, mean of runs) | IC50 [2] [µM] | IC50 [3] [µM]
CN(Cc1cnn(C)c1)C(=O)c1cc2ccccc2oc1=O | > 100 µM (inactive) | > 100 | > 95 µM (inactive) | > 95 | > 95
O=C(COC(=O)c1ccccn1)c1ccc([N+](=O)[O-])cc1 | > 100 µM (inactive) | > 100 | > 95 µM (inactive) | > 95 | > 95
CCn1ncc(Br)c1C(=O)N(C)C12CC3CC(CC(C3)C1)C2 | > 100 µM (inactive) | > 100 | > 95 µM (inactive) | > 95 | > 95
CCC(=O)Nc1cc2c3c(c1)CCC(=O)N3CCC2 | 13.8 µM | 13.8 | > 95 µM (inactive) | > 95 | > 95
C=C(C)C1CC=C(C)/C(=N\NC(=O)CNc2ccccc2OC)C1 (stereo not given) | > 100 µM (inactive) | > 100 | > 95 µM (inactive) | > 95 | > 95
Cc1nc(Nc2ccc(S(N)(=O)=O)cc2)oc1C | inactive | 73.1 | > 95 µM (inactive) | > 95 | > 95
Cc1cc2c(cc1C)NC(c1nc3ccccc3[nH]1)C1=C(CC(C)(C)CC1=O)N2 (stereo not given) | > 100 µM (inactive) | > 100 | > 95 µM (inactive) | > 95 | > 95
COc1ccc(N=C2C(=Nc3ccc(OC)cc3)N(c3ccc(N(C)C)cc3)C(=S)N2c2ccc(OC)cc2)cc1 | > 100 µM (inactive) | > 100 | > 95 µM (inactive) | > 95 | > 95
O=C(NCCCN1CCCCCC1)c1ccc(CS(=O)(=O)Cc2ccccc2F)o1 | > 100 µM (inactive) | > 100 | > 95 µM (inactive) | > 95 | > 95
O=C(Nc1ccccc1N1CCOCC1)c1ccc(N2CCCC2=O)cc1 | > 100 µM (inactive) | > 100 | > 95 µM (inactive) | > 95 | > 95
NC1=NC[C@@H](Cc2ccc(O)cc2)N1CCCCC1CCCCC1 | > 100 µM (inactive) | > 100 | > 95 µM (inactive) | > 95 | > 95
COc1cc(CN2C[C@@H](CO)O[C@@H](n3cnc4c(N5CCN(c6ccccc6)CC5)ncnc43)C2)cc(OC)c1OC | inactive | 96.3 | > 95 µM (inactive) | > 95 | > 95
COC(=O)CCCC1=CC2=CC(=O)C(C)(OC(=O)c3cccs3)C(=O)C2=CN1CCCCO (stereo not given) | > 100 µM (inactive) | > 100 | > 95 µM (inactive) | > 95 | > 95
Oc1ccccc1-c1ccn[nH]1 | > 100 µM (inactive) | > 100 | > 95 µM (inactive) | > 95 | > 95
Cc1cc(C)cc(N(CCC(=O)O)S(=O)(=O)c2ccc3ccccc3c2)c1 | > 100 µM (inactive) | > 100 | > 95 µM (inactive) | > 95 | > 95
NC(=O)c1c(NC(=O)C(=O)N2CCOCC2)sc2c1CCCC2 | > 100 µM (inactive) | > 100 | > 95 µM (inactive) | > 95 | > 95
COc1ccc(-c2[nH]ncc2CN(C)CCc2c(C)n[nH]c2C)c(F)c1 | > 100 µM (inactive) | > 100 | > 95 µM (inactive) | > 95 | > 95
C=C(C)COc1ccc(-c2[nH]ncc2-c2ccccc2)c(O)c1 | > 100 µM (inactive) | > 100 | > 95 µM (inactive) | > 95 | > 95
CC1CCN(C(=O)c2[nH]cnc2C(=O)NCc2ccc(CNC(=O)OC(C)(C)C)cc2)CC1 | 12.9 µM | 12.9 | > 95 µM (inactive) | > 95 | > 95
CC(=O)OC1CC[C@]2(C#N)[C@H]3CC[C@]4(C)[C@H](C5C=CC(=O)O5)CCC4(O)C3CCC2(O)C1 (stereo not given in full) | > 100 µM (inactive) | > 100 | > 95 µM (inactive) | > 95 | > 95
O=C(Nc1cc(C(F)(F)F)ccc1N1CCCC1)C1CC(=O)N(Cc2ccccc2)C1 (stereo not given) | > 100 µM (inactive) | > 100 | > 95 µM (inactive) | > 95 | > 95
CCC1=C(OC(=O)N(CC)CC)N2C(=O)OC(=NCC(=O)OC)[C@]2(C)[C@H]2C1=CC[C@H]1C(=O)N(CC)C(=O)[C@H]12 | > 100 µM (inactive) | > 100 | > 95 µM (inactive) | > 95 | > 95

SMILES | IC50 (AlphaScreen, mean of runs) | IC50 [1] [µM] | IC50 (FP, mean of runs) | IC50 [2] [µM] | IC50 [3] [µM]
CCC1=C(OC(=O)N(CC)CC)N2C(=O)OC(=NCC(=O)OC)[C@]2(Cc2ccccc2)[C@H]2C1=CC[C@H]1C(=O)N(CC(=O)OC)C(=O)[C@H]12 | inactive | 64.8 | > 95 µM (inactive) | > 95 | > 95
CC(C)OC(=O)CSc1nnc(-c2ccccn2)n1-c1ccccc1 | > 100 µM (inactive) | > 100 | > 95 µM (inactive) | > 95 | > 95
O=C(/C=C/c1ccccc1)c1ccccn1 | > 100 µM (inactive) | > 100 | > 95 µM (inactive) | > 95 | > 95
CC(Nc1nc(-c2ccc(F)cc2)cs1)c1nc2cc(C(F)(F)F)ccc2n1CCOCCO (stereo not given) | > 100 µM (inactive) | > 100 | > 95 µM (inactive) | > 95 | > 95
CCCNC(=S)Nc1cccc(C(F)(F)F)c1 | > 100 µM (inactive) | > 100 | > 95 µM (inactive) | > 95 | > 95
CCOc1c2ccc(C(=O)NCCc3cccs3)cc2nn1CC | > 100 µM (inactive) | > 100 | > 95 µM (inactive) | > 95 | > 95
CC#CCN(Cc1ccco1)C(=O)C1CCC(=O)N(Cc2ccccc2F)C1 (stereo not given) | > 100 µM (inactive) | > 100 | > 95 µM (inactive) | > 95 | > 95
CC(=O)Nc1ccc(Oc2cc(C#N)c(C#N)cc2N2CCOCC2)cc1 | > 100 µM (inactive) | > 100 | > 95 µM (inactive) | > 95 | > 95
CCCNC(=O)[C@H]1N2C(=O)c3c(ccc(OC)c3OC)C2SC1(C)C (stereo not given in full) | inactive | 62.5 | > 95 µM (inactive) | > 95 | > 95
O=C(Cn1ccc(NC(=O)OCc2ccccc2)nc1=O)NCCCn1ccnc1 | > 100 µM (inactive) | > 100 | > 95 µM (inactive) | > 95 | > 95
COc1ccccc1COc1ccc2c(C)c(CC(=O)O)c(=O)oc2c1C | > 100 µM (inactive) | > 100 | > 95 µM (inactive) | > 95 | > 95
O=S(=O)(c1cc(Cl)cc(Cl)c1)N1Cc2cc(-c3ccccc3)ccc2-n2nncc2C1 | > 100 µM (inactive) | > 100 | > 95 µM (inactive) | > 95 | > 95
O=C(CCc1ccc(Oc2cc([N+](=O)[O-])cc([N+](=O)[O-])c2)cc1)N1CCCCCC1 | 11.6 µM | 11.6 | > 95 µM (inactive) | > 95 | > 95
O=C1CCCN1CCCNc1nc(NCc2cccs2)nc2ccsc12 | inactive | 28 | > 95 µM (inactive) | > 95 | > 95
NNc1ncnc2c1cnn2-c1ccccc1 | > 100 µM (inactive) | > 100 | > 95 µM (inactive) | > 95 | > 95
O=C(NCc1ccccc1)C(c1cccnc1)N(C(=O)c1ccccn1)c1ccccc1F (stereo not given) | > 100 µM (inactive) | > 100 | > 95 µM (inactive) | > 95 | > 95
CC(=O)/C(=N\Nc1ccc(Cl)cc1Cl)Sc1cccc2cccnc12 | > 100 µM (inactive) | > 100 | > 95 µM (inactive) | > 95 | > 95
Cc1ccc2cc(CN(c3ccccc3C)S(=O)(=O)c3ccccc3)c(=O)[nH]c2c1 | > 100 µM (inactive) | > 100 | > 95 µM (inactive) | > 95 | > 95
CCOC(=O)C1=CCN(S(=O)(=O)c2ccccc2Br)C1c1ccccc1 (stereo not given) | > 100 µM (inactive) | > 100 | > 95 µM (inactive) | > 95 | > 95
O=C(NNc1ncnc2c1cnn2-c1ccc(F)cc1)c1ccco1 | > 100 µM (inactive) | > 100 | > 95 µM (inactive) | > 95 | > 95
O=c1c2cn[nH]c2nc(SCc2ccccc2F)n1-c1ccc(Br)cc1 | > 100 µM (inactive) | > 100 | > 95 µM (inactive) | > 95 | > 95
CCOC(=O)c1ccc(N2CCN(C(=O)c3ccccc3)CC2)c(NC(=O)c2ccco2)c1 | > 100 µM (inactive) | > 100 | > 95 µM (inactive) | > 95 | > 95

From PubChem BioAssay AID651650 (Sanford-Burnham Center for Chemical Genomics, 2012)
